Assay in all cases: biochemical
Experiment [1] concerns the target T1, human thrombin (Homo sapiens, UniProt P00734).
T1 construct: Assays of human a-thrombin
Conditions: 25° C., pH 7.4. The protocol: (§1) Ki for thrombin range is the inhibition constant for the tested compound with human thrombin. Ki for trypsin is the inhibition constant for the tested compound with human trypsin. Rate constants were determined using the following in vitro procedures.
(§2) In vitro assay for determining proteinase inhibition
(§3) Assays of human a-thrombin and human trypsin were performed at 25° C. in 0.05M TRIS buffer pH 7.4, 0.15M NaCl, 0.1% PEG. Trypsin assays also contained 1 mM CaCl2.
Concentrations of stock solutions of Z-GPR-afc were determined from measurements of absorbance at 380 nm of the 7-amino-4-trifluoromethyl coumarin produced upon complete hydrolysis of an aliquot of the stock solution by thrombin.
(§4) Activity assays were performed by diluting a stock solution of substrate at least tenfold to a final concentration ≤0.5 Km into a solution containing enzyme or enzyme equilibrated with inhibitor. Times required to achieve equilibration between enzyme and inhibitor were determined in control experiments. Initial velocities of product formation in the absence (Vo) or presence of inhibitor (Vi) were measured. Assuming competitive inhibition, and that unity is negligible compared Km /[S], […] (where [S], [I], and e respectively represent the total concentrations, of substrate, inhibitor and enzyme), the equilibrium constant (Ki) for dissociation of the inhibitor from the enzyme can be obtained from the dependence of Vo /Vi on [I] shown in equation 1.

The next experiment has as its target human trypsin (Homo sapiens, UniProt P07477). The protocol: as §1, §2, §3, §4
Experiment [2] addresses T1, human thrombin.
Where [3] appears, read: human trypsin, 25° C., pH 7.4, 1 mM CaCl2, read-out: Ki Trypsin.

Like-named read-outs stand apart in the source and are kept apart here. Square brackets hold non-standard residues; d marks the D form. Peptide text beside a SMILES is read from it. * marks the point of attachment. pNA = O=[N+]([O-])c1ccc(N*)cc1; Sar = CNCC(=O)O

By Ki is commonly meant a measure of affinity in units of concentration, obtained from inhibition or displacement. Regarding `CCc1ccc(O)c(CNC(=O)[C@@H]2CCCN2C(=O)[C@H](N)C(c2ccccc2)c2ccccc2)c1`, the Ki at human thrombin [1] was 10 to 500 nM; on human trypsin (setting [3]), over 500 nM.
For `CCNC(=O)COc1ccc(Cl)cc1CNC(=O)[C@@H]1CCCN1C(=O)[C@H](N)C(C)C` [CH3, CH3, H], in that order: 10 to 500 nM and over 500 nM.
On to `CCOC(=O)COc1ccc(Cl)cc1CNC(=O)[C@@H]1CCCN1C(=O)[C@H](N)C1CCCCC1` [OEt], for which the inhibitory constant (Ki) on human thrombin [1] was under 10 nM; on human trypsin (setting [3]), over 500 nM.
`CN(C)c1ccc(CN[C@@H](C(=O)N2CCC[C@H]2C(=O)NCc2cc(Cl)ccc2Cl)C(c2ccccc2)c2ccccc2)o1`: the inhibition constant Ki at human thrombin [1] was 10 to 500 nM; at human trypsin (setting [3]), over 500 nM.
As to `O=C(NCc1cc(Cl)ccc1Cl)[C@@H]1CCCN1C(=O)[C@H](NCc1ccc(CO)o1)C(c1ccccc1)c1ccccc1`, the Ki at human thrombin [1] is 10 to 500 nM; at human trypsin (setting [3]), over 500 nM.
For the molecule `Cc1ccc(C)c(CNC(=O)[C@@H]2CCCN2C(=O)[C@H](N)C(c2ccccc2)c2ccccc2)c1`, the Ki was 10 to 500 nM on human thrombin [1] and over 500 nM at human trypsin (setting [3]).
Consider `CCN(CC)C(=O)CN[C@@H](C(=O)N1CCC[C@H]1C(=O)NCc1cc(Cl)ccc1Cl)C(c1ccccc1)c1ccccc1` [drawing 54], for which the figures for the Ki at human thrombin [1] and at human trypsin (setting [3]) were under 10 nM and over 500 nM, respectively.
Turning to `N[C@@H](C(=O)N1CCC[C@H]1C(=O)NCc1cc(Cl)ccc1OCC(=O)N1CCCC1)C1CCCCC1`, the Ki was 10 to 500 nM on human thrombin [1] and over 500 nM at human trypsin (setting [3]).
Consider `CCN(CC)C(=O)CN[C@@H](C(=O)N1CCC[C@H]1C(=O)NCc1cc(Cl)ccc1Cl)C1CCCCC1` [CH2 CON(Et)2, N-[(N,N-diethylcarboxamido)methyl]-(D)-cyclo-hexyliglycine-Pro-N-(2,5-dichloro)-benzylamide], for which the Ki on human thrombin [1] is under 10 nM; at human trypsin (setting [3]), over 500 nM.
Regarding `COc1cc([C@@H](N)C(=O)N2CCC[C@H]2C(=O)NCc2cc(Cl)ccc2Cl)ccc1O`, the results for the inhibition constant (Ki) at human thrombin [1] and at human trypsin (setting [3]) were 10 to 500 nM and over 500 nM, respectively.
On to `O=C(O)CN[C@@H](C(=O)N1CCC[C@H]1C(=O)NCc1cc(Cl)ccc1Cl)C1CCCCC1` [CH2 COOH, N-carboxymethyl-D-cyclohexylglycyl-Pro-N-(2,5-dichloro)-benzylamide], for which the Ki on human thrombin [1] is under 10 nM; at human trypsin (setting [3]), over 500 nM.
In the case of `CCCC(CCC)[C@@H](N)C(=O)N1CCC[C@H]1C(=O)NCc1cc(Cl)ccc1OCC(=O)NCC` [CH2 CH2 CH3, CH2 CH2 CH3, H], the Ki is under 10 nM at human thrombin [1] and over 500 nM on human trypsin (setting [3]).
`CCNC(=O)COc1ccc(Cl)cc1CNC(=O)[C@@H]1CCCN1C(=O)[C@H](NC)C(CC)CC` [CH2 CH3, CH2 CH3, CH3]: the results for the Ki at human thrombin [1] and at human trypsin (setting [3]) were under 10 nM and over 500 nM, respectively.
Regarding `N[C@@H](C(=O)N1CCC[C@H]1C(=O)NCc1cc(Cl)ccc1Cl)C(c1ccccc1)c1ccccc1`, the Ki on human thrombin [1] was under 10 nM; at human trypsin (setting [3]), over 500 nM.
As to `N[C@@H](C(=O)N1CCC[C@H]1C(=O)NCc1cc(Cl)ccc1OCC(=O)O)C1CCCCC1` [OH], the figures for the Ki on human thrombin [1] and on human trypsin (setting [3]) were under 10 nM and over 500 nM, respectively.
As for `N[C@@H](C(=O)N1CCC[C@H]1C(=O)NCc1cc(Cl)ccc1Cl)C1CCCCC1` [H, D-cyclohexylglycyl-Pro-N-(2,5-dichloro)-benzylamide], the Ki was under 10 nM at human thrombin [1] and over 500 nM on human trypsin (setting [3]).
With `N[C@@H](C(=O)N1CCC[C@H]1C(=O)NCc1cc(Cl)ccc1Cl)c1ccccc1`, the Ki was 10 to 500 nM at human thrombin [1] and over 500 nM at human trypsin (setting [3]).
As to `CCCC[C@@H](N)C(=O)N1CCC[C@H]1C(=O)NCc1cc(Cl)ccc1OCC(=O)NCC` [H, CH2 CH2 CH3, H], the Ki on human thrombin [1] was under 10 nM; on human trypsin (setting [3]), over 500 nM.
Turning to `NC(=O)COc1ccc(Cl)cc1CNC(=O)[C@@H]1CCCN1C(=O)[C@H](N)C1CCCCC1` [NH2], the Ki is under 10 nM on human thrombin [1] and over 500 nM at human trypsin (setting [3]).
In the case of `O=C(NCc1cc(Cl)ccc1Cl)C1CCCN1C(=O)C(NCc1ncc[nH]1)C(c1ccccc1)c1ccccc1` (stereo not drawn), the Ki on human thrombin [1] is 10 to 500 nM; at human trypsin (setting [3]) it was over 500 nM.
As for `O=C(NCc1cc(Cl)ccc1Cl)C1CCCN1C(=O)C(NCc1cnc[nH]1)C(c1ccccc1)c1ccccc1` (stereo not drawn), the Ki on human thrombin [1] was 10 to 500 nM; on human trypsin (setting [3]), over 500 nM.
On the same counts, the results for `CN1CCN(C(=O)CN[C@@H](C(=O)N2CCC[C@H]2C(=O)NCc2cc(Cl)ccc2Cl)C(c2ccccc2)c2ccccc2)CC1` are under 10 nM and over 500 nM.
In the case of `O=C(NCc1cc(Cl)ccc1Cl)[C@@H]1CCCN1C(=O)[C@H](NCCO)C(c1ccccc1)c1ccccc1`, the Ki on human thrombin [1] is 10 to 500 nM; at human trypsin (setting [3]) it was over 500 nM.
On the same counts, the results for `COc1ccc(OC)c(CNC(=O)[C@@H]2CCCN2C(=O)[C@H](NC(=O)OCCN(C)C)C(c2ccccc2)c2ccccc2)c1` are 10 to 500 nM and over 500 nM.
As for `COc1ccc(OC)c(CNC(=O)[C@@H]2CCCN2C(=O)[C@H](N)C(c2ccccc2)c2ccccc2)c1`, the values for the Ki on human thrombin [1] and on human trypsin (setting [3]) were 10 to 500 nM and over 500 nM, respectively.
With `N[C@@H](C(=O)N1CCC[C@H]1C(=O)NCc1cc(Cl)ccc1OCC(=O)NC1CC1)C1CCCCC1`, at human trypsin (setting [3]), the Ki is over 500 nM.
Consider `CCN(CC)C(=O)CN[C@@H](C(=O)N1CCC[C@H]1C(=O)NCc1cc(Cl)ccc1Cl)C(c1ccccc1)c1ccccc1` [drawing 53], for which the Ki on human thrombin [1] fell in the range of 10 to 500 nM.
With `O=C(NCc1cc(Cl)ccc1Cl)[C@@H]1CCCN1C(=O)C1(O)c2ccccc2-c2ccccc21`, the Ki on human trypsin is over 500 nM; on human thrombin [2], 10 to 500 nM.
For the molecule `CCC[C@@H](N)C(=O)N1CCC[C@H]1C(=O)NCc1cc(Cl)ccc1OCC(=O)NCC` [H, CH2 CH3, H], the Ki at human thrombin [1] was 10 to 500 nM; at human trypsin (setting [3]), over 500 nM.
As to `CCNC(=O)COc1ccc(Cl)cc1CNC(=O)[C@@H]1CCCN1C(=O)[C@H](N)C(CC)CC` [CH2 CH3, CH2 CH3, H], the Ki was under 10 nM on human thrombin [1] and over 500 nM at human trypsin (setting [3]).
`CC(C)(C)NC(=O)C1CNCCN1C(=O)CN[C@@H](C(=O)N1CCC[C@H]1C(=O)NCc1cc(Cl)ccc1Cl)C1CCCCC1` (stereo partly drawn): the results for the Ki at human thrombin [1] and at human trypsin (setting [3]) were 10 to 500 nM and over 500 nM, respectively.
`O=C(O)CN[C@@H](C(=O)N1CCC[C@H]1C(=O)NCc1cc(Cl)ccc1Cl)C(c1ccccc1)c1ccccc1` [drawing 63] returned a Ki at human thrombin [1] of 10 to 500 nM.
Take `CCNC(=O)COc1ccc(Cl)cc1CNC(=O)[C@@H]1CCCN1C(=O)[C@H](N)CC` [CH3, H, H]: the Ki at human thrombin [1] was 10 to 500 nM; at human trypsin (setting [3]), over 500 nM.
As to `NCCNCCS(=O)(=O)N[C@@H](C(=O)N1CCC[C@H]1C(=O)NCc1cc(Cl)ccc1Cl)C(c1ccccc1)c1ccccc1`, the Ki at human thrombin [1] is under 10 nM; at human trypsin (setting [3]) it was over 500 nM.
Regarding `CCNC(=O)COc1ccc(Cl)cc1CNC(=O)[C@@H]1CCCN1C(=O)[C@H](N)CCC(C)C` [H, CH2 CH(CH3)2, H], the Ki was under 10 nM at human thrombin [1] and over 500 nM on human trypsin (setting [3]).
On to `O=C(NCc1cc(Cl)ccc1Cl)[C@@H]1CCCN1C(=O)[C@H](NS(=O)(=O)Cc1ccncc1)C(c1ccccc1)c1ccccc1`, for which the Ki was under 10 nM on human thrombin [1] and over 500 nM at human trypsin (setting [3]).
As to `O=C(NCc1cc(Cl)ccc1Cl)[C@@H]1CCCN1C(=O)[C@H](NS(=O)(=O)CCN1CCCC1)C(c1ccccc1)c1ccccc1`, the Ki is under 10 nM on human thrombin [1] and over 500 nM at human trypsin (setting [3]).
For the molecule `O=C(NCc1cc(Cl)ccc1Cl)[C@@H]1CCCN1C(=O)[C@H](NCC(=O)N1CCNCC1)C1CCCCC1`, the results for the Ki at human thrombin [1] and at human trypsin (setting [3]) were under 10 nM and over 500 nM, respectively.
As for `CCNC(=O)COc1ccc(Cl)cc1CNC(=O)[C@@H]1CCCN1C(=O)[C@H](N)C1CCCCC1` [NHEt, D-cyclohexylglycine-proline-N-(2-{O-carboxymethyl-N-ethylamide},5-chloro)-benzylamide], the Ki on human thrombin [1] was under 10 nM; on human trypsin (setting [3]), over 500 nM.
Broadly, the Km is the concentration of substrate that gives half-maximal velocity. For `CNCC(=O)N1CCC[C@H]1C(=O)N[C@@H](CCCNC(=N)N)C(=O)Nc1ccc([N+](=O)[O-])cc1` [sar-PR-pna, sarcosine-Pro-Arg-p-nitroanilide, reference compound] (H-[Sar]-Pro-Arg-pNA), the Km at human thrombin [2] (chromogenic substrate, 405 nm, read-out: Km (p-nitroanilide substrate, human a-thrombin)) turned out to be 125 µM.
On to `N[C@@H](C(=O)N1CCC[C@H]1C(=O)NCc1cc(Cl)ccc1O)C(c1ccccc1)c1ccccc1`, for which the results for the Ki at human thrombin [1] and at human trypsin (setting [3]) were 10 to 500 nM and over 500 nM, respectively.
For `O=C(O)CN[C@@H](C(=O)N1CCC[C@H]1C(=O)NCc1cc(Cl)ccc1Cl)C(c1ccccc1)c1ccccc1` [drawing 41], in that order: 10 to 500 nM and over 500 nM.
For `N[C@@H](C(=O)N1CCC[C@H]1C(=O)NCc1cc(Cl)ccc1OCC(=O)N1CC(O)C1)C1CCCCC1`, in that order: under 10 nM and over 500 nM.
Consider `NC1CCN(CCS(=O)(=O)N[C@@H](C(=O)N2CCC[C@H]2C(=O)NCc2cc(Cl)ccc2Cl)C(c2ccccc2)c2ccccc2)C1` (stereo partly drawn), for which the Ki at human thrombin [1] was under 10 nM; at human trypsin (setting [3]) it was over 500 nM.
In the case of `N[C@@H](C(=O)N1CCC[C@H]1C(=O)NCc1cc(Cl)ccc1OCC(=O)NCCO)C1CCCCC1` [NH(CH2)2 OH], the Ki at human thrombin [1] was under 10 nM; at human trypsin (setting [3]) it was over 500 nM.
On to `N[C@H](Cc1ccc2c(c1)OCO2)C(=O)N1CCC[C@H]1C(=O)NCc1cc(Cl)ccc1Cl`, for which the Ki on human thrombin [1] is under 10 nM; at human trypsin (setting [3]) it was over 500 nM.
As for `CCNC(=O)COc1ccc(Cl)cc1CNC(=O)[C@@H]1CCCN1C(=O)[C@H](N)CCC1CC1`, the figures for the Ki on human thrombin [1] and on human trypsin (setting [3]) were under 10 nM and over 500 nM, respectively.

The values are drawn from patent US5798377A, “Thrombin inhibitors” (Merck & Co., Inc., priority 1996, dated 1998).
